Data: paper PMC5737711 (ACS chemical neuroscience, 2017)

Columns and labels:
[1] = biological target: CD36-Aβ interaction (recombinant extracellular domain of human CD36, fibrillar hAβ 1-42) (Homo sapiens, UniProt P16671); test: Colorimetric assay for inhibitors of Aβ-CD36 interaction; type: binding; conditions: for Activity on the CD36-Aβ interaction (screen): first evaluated at 100 μM
[2] = tested on: N9 microglia cells; conditions: cited from earlier work
[3] = tested on: CD36-Aβ interaction; conditions: cited from earlier work

CD36-Aβ interaction (recombinant extracellular domain of human CD36, fibrillar hAβ 1-42), sequence (P16671 30-439): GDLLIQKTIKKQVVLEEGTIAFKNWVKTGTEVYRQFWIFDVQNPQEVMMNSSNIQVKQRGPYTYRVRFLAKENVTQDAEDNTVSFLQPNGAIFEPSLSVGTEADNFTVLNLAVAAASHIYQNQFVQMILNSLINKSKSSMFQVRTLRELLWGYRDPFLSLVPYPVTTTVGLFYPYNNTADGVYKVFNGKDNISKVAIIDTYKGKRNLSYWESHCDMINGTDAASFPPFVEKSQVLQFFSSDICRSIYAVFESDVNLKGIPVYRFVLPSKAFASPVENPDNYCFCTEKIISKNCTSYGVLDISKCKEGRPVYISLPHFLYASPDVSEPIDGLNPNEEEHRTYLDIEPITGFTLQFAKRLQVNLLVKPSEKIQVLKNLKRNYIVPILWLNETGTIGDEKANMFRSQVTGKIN

| Activity on the CD36-Aβ interaction (screen) [1] | Mode of inhibition of the interaction CD36-Aβ ([1]; from dose response profile) | SMILES | Effect on production of ROS induced by Aβ [2] | Inhibition of CD36-Aβ interaction in a cell-based assay [3] |
| --- | --- | --- | --- | --- |
| lacked activity | – | COc1ccc2cc(NC(=O)C3=NO[C@H]4[C@H](O)C=C[C@@H](Cl)[C@@]4(O)C3)c(=O)oc2c1OC [Compound 2, Trichodermamide B] | – | – |
| – | competitive inhibitor | C[C@H]1[C@H](C)CC[C@]2(C(=O)O)CC[C@]3(C)C(=CC[C@@H]4[C@@]5(C)CC[C@H](O)C(C)(C)[C@@H]5CC[C@]43C)[C@H]12 [ursolic acid] | inhibits the production of ROS | inhibitor of CD36-Aβ interaction |
| lacked activity | – | COc1ccc2cc(NC(=O)C3=NO[C@H]4[C@H](O)C=C[C@@H](O)[C@@]4(O)C3)c(=O)oc2c1OC [Compound 1, Trichodermamide A] | – | – |
